Assay results as given in patent US10626112B2, “Heterocyclic sulfonamide derivative and medicine comprising same” (EA PHARMA CO., LTD., priority 2014, dated 2020).

Molecular target: human TRPA1 (Homo sapiens (Human), UniProt O75762)
Assay: Measurement of TRPA1 antagonist activity (1): intracellular calcium increase
Format: cell-based
Conditions: 293T cells transfected with human TRPA1 expression plasmid; allylisothiocyanate 20 μM stimulation; intracellular calcium fluorescence; read-out: hTRPA1 IC50
In short: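 Calcium-flux readout of TRPA1 block: compound given 10 min before 20 μM (final) allylisothiocyanate, fluorescence tracked 5 min. Cells were 293T transiently expressing human TRPA1, dye-loaded 1 hr in HBSS, 20 mM HEPES, pH 7.2. Inhibition scaled between agonist-only and buffer-only responses; IC50 by sigmoid fitting.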

human TRPA1, sequence (O75762 whole entry): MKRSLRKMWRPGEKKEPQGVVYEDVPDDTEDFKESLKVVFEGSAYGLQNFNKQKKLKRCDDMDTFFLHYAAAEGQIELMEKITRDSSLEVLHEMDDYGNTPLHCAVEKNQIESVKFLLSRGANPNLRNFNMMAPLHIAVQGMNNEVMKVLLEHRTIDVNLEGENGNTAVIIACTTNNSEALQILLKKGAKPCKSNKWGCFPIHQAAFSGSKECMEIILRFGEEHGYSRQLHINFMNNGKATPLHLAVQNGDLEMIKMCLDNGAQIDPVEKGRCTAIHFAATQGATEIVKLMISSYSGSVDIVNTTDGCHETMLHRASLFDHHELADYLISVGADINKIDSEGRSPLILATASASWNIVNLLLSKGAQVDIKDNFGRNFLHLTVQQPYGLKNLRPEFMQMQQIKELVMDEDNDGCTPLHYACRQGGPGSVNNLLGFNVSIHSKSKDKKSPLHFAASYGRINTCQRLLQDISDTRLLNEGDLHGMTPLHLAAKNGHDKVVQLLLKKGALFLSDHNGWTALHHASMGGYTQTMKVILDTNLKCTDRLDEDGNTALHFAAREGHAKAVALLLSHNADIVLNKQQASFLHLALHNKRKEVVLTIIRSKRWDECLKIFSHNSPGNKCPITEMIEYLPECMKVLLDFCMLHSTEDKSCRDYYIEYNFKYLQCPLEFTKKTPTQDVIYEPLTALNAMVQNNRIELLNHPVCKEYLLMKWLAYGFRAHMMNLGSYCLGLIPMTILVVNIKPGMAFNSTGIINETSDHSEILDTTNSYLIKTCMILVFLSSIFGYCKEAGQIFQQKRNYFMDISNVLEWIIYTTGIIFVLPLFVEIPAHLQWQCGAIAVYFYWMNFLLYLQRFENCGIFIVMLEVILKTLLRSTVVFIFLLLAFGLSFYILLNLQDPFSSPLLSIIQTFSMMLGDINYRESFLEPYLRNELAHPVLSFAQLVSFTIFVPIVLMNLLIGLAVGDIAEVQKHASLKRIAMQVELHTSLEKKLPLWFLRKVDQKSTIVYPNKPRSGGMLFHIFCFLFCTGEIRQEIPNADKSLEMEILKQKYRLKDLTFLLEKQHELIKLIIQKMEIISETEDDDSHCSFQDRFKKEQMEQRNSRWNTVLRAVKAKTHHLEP

Row | Molecule | IC50
1 | O=C(NCc1cccc(Oc2ccc(C(F)(F)F)cc2)c1)[C@@H]1CCCN1S(=O)(=O)c1cc2cc(F)ccc2o1 [Example 53, (2S)-1-(5-fluorobenzofuran-2-yl)sulfonyl-N-[[3-[4-(trifluoromethyl)phenoxy]phenyl]-methyl]pyrrolidine-2-carboxamide] | 2.7 nM
2 | O=C(NCc1ccnc(-c2ccc(F)cc2)c1)[C@@H]1CCCN1S(=O)(=O)c1cc2ccccc2o1 [Example 114, (2S)-1-(benzofuran-2-ylsulfonyl)-N-[[2-(4-fluorophenyl)-4-pyridyl]methyl]pyrrolidine-2-carboxamide] | 32 nM
3 | O=C(NCc1cccc(OCC2CCCOC2)c1)[C@@H]1CCCN1S(=O)(=O)c1cc2cc(F)ccc2o1 (stereo partly drawn) [Example 31, (2S)-1-(5-fluorobenzofuran-2-yl)sulfonyl-N-[[3-(tetrahydropyran-3-ylmethoxy)phenyl]-methyl]pyrrolidine-2-carboxamide] | 4.3 nM
4 | O=C(NCc1cc(-c2ccc(C(F)(F)F)cn2)ccn1)[C@@H]1c2ccccc2CN1S(=O)(=O)c1cc2cc(F)ccc2o1 (racemic) [Example 264, (rac)-2-(5-fluorobenzofuran-2-yl)sulfonyl-N-[[4-[5-(trifluoromethyl)-2-pyridyl]-2-pyridyl]methyl]isoindoline-1-carboxamide] | 12 nM
5 | CN1CCOc2cc(COc3cccc(CNC(=O)[C@@H]4CCCN4S(=O)(=O)c4cc5cc(F)ccc5o4)c3)cnc21 [Example 24, (2S)-1-(5-fluorobenzofuran-2-yl)sulfonyl-N-[[3-[(4-methyl-2,3-diphydropyrido[3,2-b][1,4]oxazin-7-yl)methoxy]-phenyl]methyl]pyrrolidine-2-carboxamide] | 410 nM
6 | O=C(NCc1ccc(-c2ccccc2C(F)(F)F)cc1)[C@@H]1CCCN1S(=O)(=O)c1cc2ccccc2o1 [Example 167, (2S)-1-(benzofuran-2-ylsulfonyl)-N-[[4-[2-(trifluoromethyl)phenyl]-phenyl]methyl]pyrrolidine-2-carboxamide] | 140 nM
7 | O=C(NCc1cc(-c2ccc(C(F)(F)F)nc2)ccn1)[C@@H]1CCCN1S(=O)(=O)c1cc2cc(F)ccc2o1 [Example 149, (2S)-1-(5-fluorobenzofuran-2-yl)sulfonyl-N-[[4-[6-(trifluoromethyl)-3-pyridyl]-2-pyridyl]methyl]pyrrolidine-2-carboxamide] | 1.5 nM
8 | O=C(NCc1ccc(Oc2ccnc(C(F)(F)F)c2)cc1)[C@@H]1CCCN1S(=O)(=O)c1cc2ccccc2o1 [Example 55, (2S)-1-(benzofuran-2-ylsulfonyl)-N-[[4-[[2-(trifluoromethyl)-4-pyridyl]oxy]phenyl]methyl]-pyrrolidine-2-carboxamide] | 88 nM
9 | C[C@H](NS(=O)(=O)c1cc2ccccc2o1)C(=O)NCc1ccnc(-c2ccc(C(F)(F)F)cc2O)c1 [Example 180, (2S)-2-(benzofuran-2-ylsulfonylamino)-N-[[2-[2-hydroxy-4-(trifluoromethyl)phenyl]-4-pyridyl]methyl]propanamide] | 69 nM
10 | O=C(NCc1cccc(C(F)(F)F)c1)[C@@H]1CCCN1S(=O)(=O)c1cc2ccccc2o1 [Example 61, (2S)-1-(benzofuran-2-ylsulfonyl)-N-[[3-(trifluoromethyl)phenyl]methyl]-pyrrolidine-2-carboxamide] | 55 nM
11 | (2S)-1-(5-fluorobenzofuran-2-yl)sulfonyl-N-[[3-[[4-(trifluoromethyl)phenyl]methoxy]-phenyl]methyl]pyrrolidine-2-carboxamide [Example 41] | 1.3 nM
12 | O=C(NCc1cccc(-c2ccc(N3CCCC3)nc2)c1)[C@@H]1CCCN1S(=O)(=O)c1cc2cc(F)ccc2o1 [Example 160, (2S)-1-(5-fluorobenzofuran-2-yl)sulfonyl-N-[[3-(6-pyrrolidin-1-yl-3-pyridyl)phenyl]methyl]-pyrrolidine-2-carboxamide] | 19 nM
13 | O=C(NCc1cccc(OC2CCOCC2)c1)[C@@H]1CCCN1S(=O)(=O)c1cc2cc(F)ccc2o1 [Example 33, (2S)-1-(5-fluorobenzofuran-2-yl)sulfonyl-N-[(3-tetrahydropyran-4-yloxyphenyl)methyl]-pyrrolidine-2-carboxamide] | 160 nM
14 | (2S)-1-(5-fluorobenzofuran-2-yl)sulfonyl-N-[[3-[[2-morpholino-4-pyridyl)-methoxy]phenyl]-methyl]pyrrolidine-2-carboxamide [Example 18] | 12 nM
15 | O=C(NCc1ccnc(-c2ccc(C(F)(F)F)nc2)c1)[C@@H]1CCCN1S(=O)(=O)c1cc2ccccc2o1 [Example 124, (2S)-1-(benzofuran-2-ylsulfonyl)-N-[[2-[6-(trifluoromethyl)-3-pyridyl]-4-pyridyl]methyl]pyrrolidine-2-carboxamide] | 3.4 nM
16 | O=C(NCc1cccc(OCc2cccc(OCCN3CCOCC3)c2)c1)[C@@H]1CCCN1S(=O)(=O)c1cc2cc(F)ccc2o1 [Example 28, (2S)-1-(5-fluorobenzofuran-2-yl)sulfonyl-N-[[3-[[3-(2-morpholinoethoxy)phenyl]-methoxy]phenyl]methyl]-pyrrolidine-2-carboxamide] | 56 nM
17 | O=C(NCc1cc(-c2ccc(C(F)(F)F)cn2)c(O)cn1)[C@@H]1CCCN1S(=O)(=O)c1cc2ccccc2o1 [Example 215, (2S)-1-(benzofuran-2-ylsulfonyl)-N-[[5-hydroxy-4-[5-(trifluoromethyl)-2-pyridyl]-2-pyridyl]methyl]pyrrolidine-2-carboxamide] | 2.1 nM
18 | O=C(NCc1cc(-c2ccc(C(F)(F)F)nc2)ccn1)[C@@H]1CCCN1S(=O)(=O)c1cc2ccccc2o1 [Example 151, (2S)-1-(benzofuran-2-ylsulfonyl)-N-[[4-[6-(trifluoromethyl)-3-pyridyl]-2-pyridyl]methyl]pyrrolidine-2-carboxamide] | 1.9 nM
19 | O=C(NCc1cc(C(F)(F)F)ccc1Cl)[C@@H]1CCCN1S(=O)(=O)c1cc2cnccc2o1 [Example 266, (2S)-N-[[2-chloro-5-(trifluoromethyl)phenyl]methyl]-1-furo[3,2-c]pyridin-2-ylsulfonyl-pyrrolidine-2-carboxamide] | 38 nM
20 | Cn1nc(C(F)(F)F)cc1-c1ccnc(CNC(=O)[C@@H]2CCCN2S(=O)(=O)c2cc3ccccc3o2)c1 [Example 154, (2S)-1-(benzofuran-2-ylsulfonyl)-N-[[4-[2-methyl-5-(trifluoromethyl)pyrazol-3-yl]-2-pyridyl]methyl]pyrrolidine-2-carboxamide] | 42 nM
21 | O=C(NCc1cccc(S(=O)(=O)Cc2ccc(C(F)(F)F)cc2)c1)[C@@H]1CCCN1S(=O)(=O)c1cc2ccccc2o1 [Example 324, (2S)-1-(benzofuran-2-ylsulfonyl)-N-[[3-[[4-(trifluoromethyl)phenyl]methylsulfonyl]phenyl]methyl]pyrrolidine-2-carboxamide] | 490 nM
22 | CC(C)(C)OC(=O)c1ccc(CNC(=O)[C@@H]2CCCN2S(=O)(=O)c2cc3ccccc3o2)cc1-c1ccc(C(F)(F)F)cc1 [Example 336, tert-butyl 4-[[[(2S)-1-(benzofuran-2-ylsulfonyl)pyrrolidine-2-carbonyl]amino]methyl]-2-[4-(trifluoromethyl)phenyl]-benzoate] | 5.8 nM
23 | Cc1ccc(-c2ccnc(CNC(=O)[C@@H]3CCCN3S(=O)(=O)c3cc4ccccc4o3)c2)cc1 [Example 284, (2S)-1-(benzofuran-2-ylsulfonyl)-N-[[4-(p-tolyl)-2-pyridyl]methyl]pyrrolidine-2-carboxamide] | 76 nM
